# Source: the kinase profiling compilation of Christmann-Franck et al. (2016)
# How the values were obtained:
# Assay in all cases: KINOMEscan competition binding
# Details in all cases: compound 10.0 µM
# [1] = molecular target: ACVR1B (human) (UniProt P36896)
# [2] = molecular target: ADCK4 (human) (UniProt Q96D53)
# [3] = molecular target: AURKB (human) (UniProt Q96GD4)
# [4] = molecular target: BMPR2 (human) (UniProt Q13873)
# [5] = molecular target: CDK4 CCND3 (human) (UniProt P11802+P30281)
# [6] = molecular target: CDKL2 (human) (UniProt Q92772)
# [7] = molecular target: CLK3 (human) (UniProt P49761)
# [8] = molecular target: CSF1R (human) (UniProt P07333)
# [9] = molecular target: CSNK1A1L (human) (UniProt Q8N752)
# [10] = molecular target: CSNK1G3 (human) (UniProt Q9Y6M4)
# [11] = molecular target: DCLK1 (human) (UniProt O15075)
# [12] = test system: EGFR (human), P00533 [752-759 del]
# [13] = molecular target: EPHB3 (human) (UniProt P54753)
# [14] = molecular target: EPHB4 (human) (UniProt P54760)
# [15] = molecular target: FGFR2 (human) (UniProt P21802)
# [16] = molecular target: FGFR4 (human) (UniProt P22455)
# [17] = molecular target: IKBKB (human) (UniProt O14920)
# [18] = molecular target: MAP3K13 (human) (UniProt O43283)
# [19] = molecular target: MAP3K3 (human) (UniProt Q99759)
# [20] = molecular target: MAPK6 (human) (UniProt Q16659)
# [21] = molecular target: MAPK7 (human) (UniProt Q13164)
# [22] = molecular target: MERTK (human) (UniProt Q12866)
# [23] = test system: MET (human), P08581 [M1250T]
# [24] = test system: MET (human), P08581 [Y1235D]
# [25] = molecular target: MST1R (human) (UniProt Q04912)
# [26] = molecular target: NIM1 (human) (UniProt Q8IY84)
# [27] = molecular target: NUAK2 (human) (UniProt Q9H093)
# [28] = molecular target: PAK3 (human) (UniProt O75914)
# [29] = molecular target: PAK6 (human) (UniProt Q9NQU5)
# [30] = molecular target: PAK7 (human) (UniProt Q9P286)
# [31] = test system: PIK3CA (human), P42336 [E542K]
# [32] = molecular target: PRKAA1 (human) (UniProt Q13131)
# [33] = molecular target: PTK2 (human) (UniProt Q05397)
# [34] = molecular target: PTK2B (human) (UniProt Q14289)
# [35] = molecular target: PTK6 (human) (UniProt Q13882)
# [36] = molecular target: RPS6KA6 KD2 (human) (UniProt Q9UK32)
# [37] = molecular target: STK36 (human) (UniProt Q9NRP7)
# [38] = molecular target: TEK (human) (UniProt Q02763)
# [39] = molecular target: TIE1 (human) (UniProt P35590)
# [40] = molecular target: TSSK1B (human) (UniProt Q9BXA7)
# [41] = molecular target: TXK (human) (UniProt P42681)
# Chain of CSF1R (human) (P07333 whole entry, looked up): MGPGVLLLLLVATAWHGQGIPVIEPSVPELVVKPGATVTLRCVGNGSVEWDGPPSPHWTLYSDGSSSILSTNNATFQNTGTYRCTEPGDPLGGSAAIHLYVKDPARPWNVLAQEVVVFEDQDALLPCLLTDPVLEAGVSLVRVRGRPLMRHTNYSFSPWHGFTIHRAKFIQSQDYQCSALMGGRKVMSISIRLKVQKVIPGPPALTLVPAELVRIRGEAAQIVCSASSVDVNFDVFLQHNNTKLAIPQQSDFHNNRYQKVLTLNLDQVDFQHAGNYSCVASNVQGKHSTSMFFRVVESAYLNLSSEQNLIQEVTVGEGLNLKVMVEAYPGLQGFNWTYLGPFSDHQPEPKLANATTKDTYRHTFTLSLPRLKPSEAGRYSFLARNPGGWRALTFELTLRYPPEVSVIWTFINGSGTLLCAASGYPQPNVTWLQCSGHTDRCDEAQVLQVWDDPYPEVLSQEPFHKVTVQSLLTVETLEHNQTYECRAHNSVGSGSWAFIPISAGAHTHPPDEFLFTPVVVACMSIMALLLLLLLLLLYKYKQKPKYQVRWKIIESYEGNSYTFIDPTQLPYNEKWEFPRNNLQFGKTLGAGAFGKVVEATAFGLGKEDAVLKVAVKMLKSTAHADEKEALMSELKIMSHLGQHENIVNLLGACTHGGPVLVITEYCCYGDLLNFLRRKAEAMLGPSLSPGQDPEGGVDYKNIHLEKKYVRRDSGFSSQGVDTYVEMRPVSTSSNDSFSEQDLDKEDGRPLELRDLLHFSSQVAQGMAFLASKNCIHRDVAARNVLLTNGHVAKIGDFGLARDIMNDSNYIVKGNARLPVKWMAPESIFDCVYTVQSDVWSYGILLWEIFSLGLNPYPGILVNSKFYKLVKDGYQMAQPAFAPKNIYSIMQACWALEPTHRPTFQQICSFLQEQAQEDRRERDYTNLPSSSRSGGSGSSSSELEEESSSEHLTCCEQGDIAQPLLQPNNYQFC
# Chain of FGFR2 (human) (P21802 whole entry, looked up): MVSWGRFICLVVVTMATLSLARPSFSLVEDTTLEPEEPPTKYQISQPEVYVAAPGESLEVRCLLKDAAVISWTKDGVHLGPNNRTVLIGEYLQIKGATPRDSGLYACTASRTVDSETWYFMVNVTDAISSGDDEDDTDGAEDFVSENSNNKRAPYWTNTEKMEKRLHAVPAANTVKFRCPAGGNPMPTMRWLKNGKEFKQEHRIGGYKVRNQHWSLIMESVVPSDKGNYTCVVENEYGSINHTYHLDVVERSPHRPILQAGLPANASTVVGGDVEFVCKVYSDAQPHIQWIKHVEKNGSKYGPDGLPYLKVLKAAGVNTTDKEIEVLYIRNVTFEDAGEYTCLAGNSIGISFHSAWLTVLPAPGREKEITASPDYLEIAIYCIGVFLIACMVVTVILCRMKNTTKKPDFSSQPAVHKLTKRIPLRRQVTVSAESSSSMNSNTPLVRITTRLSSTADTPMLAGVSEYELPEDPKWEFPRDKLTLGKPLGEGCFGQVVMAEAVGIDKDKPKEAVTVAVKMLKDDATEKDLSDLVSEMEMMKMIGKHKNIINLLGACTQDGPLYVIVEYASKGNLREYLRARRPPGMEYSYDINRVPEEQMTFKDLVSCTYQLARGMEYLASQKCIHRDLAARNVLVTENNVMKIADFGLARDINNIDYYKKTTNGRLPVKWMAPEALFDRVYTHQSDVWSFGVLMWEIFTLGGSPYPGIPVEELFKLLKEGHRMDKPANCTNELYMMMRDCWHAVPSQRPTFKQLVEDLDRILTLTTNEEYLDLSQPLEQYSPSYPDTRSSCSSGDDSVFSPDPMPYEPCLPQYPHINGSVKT
# Chain of EPHB4 (human) (P54760 whole entry, looked up): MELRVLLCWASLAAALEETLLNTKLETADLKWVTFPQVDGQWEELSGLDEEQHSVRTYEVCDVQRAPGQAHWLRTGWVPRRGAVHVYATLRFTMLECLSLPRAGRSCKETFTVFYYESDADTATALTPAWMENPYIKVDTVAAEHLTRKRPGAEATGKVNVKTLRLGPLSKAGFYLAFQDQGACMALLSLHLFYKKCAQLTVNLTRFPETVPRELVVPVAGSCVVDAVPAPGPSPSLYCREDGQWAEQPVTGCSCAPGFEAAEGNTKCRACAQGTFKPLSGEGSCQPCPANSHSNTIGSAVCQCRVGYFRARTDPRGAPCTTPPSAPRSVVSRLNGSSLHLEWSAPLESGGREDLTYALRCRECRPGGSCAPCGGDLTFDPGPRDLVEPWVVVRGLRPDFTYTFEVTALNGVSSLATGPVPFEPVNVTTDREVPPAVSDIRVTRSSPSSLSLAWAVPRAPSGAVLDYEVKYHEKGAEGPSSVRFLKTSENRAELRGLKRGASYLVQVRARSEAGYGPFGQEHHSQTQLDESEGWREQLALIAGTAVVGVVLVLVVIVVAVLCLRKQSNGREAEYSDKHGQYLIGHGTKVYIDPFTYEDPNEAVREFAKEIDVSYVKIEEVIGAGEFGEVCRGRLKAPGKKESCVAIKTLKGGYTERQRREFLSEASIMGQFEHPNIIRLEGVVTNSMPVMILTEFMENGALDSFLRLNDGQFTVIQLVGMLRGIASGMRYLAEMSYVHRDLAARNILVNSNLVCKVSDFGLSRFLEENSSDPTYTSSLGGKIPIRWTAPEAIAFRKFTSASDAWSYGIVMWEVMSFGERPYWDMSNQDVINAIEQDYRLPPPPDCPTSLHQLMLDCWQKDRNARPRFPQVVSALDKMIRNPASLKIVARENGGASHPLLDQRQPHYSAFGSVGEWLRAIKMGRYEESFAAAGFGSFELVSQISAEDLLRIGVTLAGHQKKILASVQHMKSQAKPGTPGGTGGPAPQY
# Chain of ADCK4 (human) (Q96D53 whole entry, looked up): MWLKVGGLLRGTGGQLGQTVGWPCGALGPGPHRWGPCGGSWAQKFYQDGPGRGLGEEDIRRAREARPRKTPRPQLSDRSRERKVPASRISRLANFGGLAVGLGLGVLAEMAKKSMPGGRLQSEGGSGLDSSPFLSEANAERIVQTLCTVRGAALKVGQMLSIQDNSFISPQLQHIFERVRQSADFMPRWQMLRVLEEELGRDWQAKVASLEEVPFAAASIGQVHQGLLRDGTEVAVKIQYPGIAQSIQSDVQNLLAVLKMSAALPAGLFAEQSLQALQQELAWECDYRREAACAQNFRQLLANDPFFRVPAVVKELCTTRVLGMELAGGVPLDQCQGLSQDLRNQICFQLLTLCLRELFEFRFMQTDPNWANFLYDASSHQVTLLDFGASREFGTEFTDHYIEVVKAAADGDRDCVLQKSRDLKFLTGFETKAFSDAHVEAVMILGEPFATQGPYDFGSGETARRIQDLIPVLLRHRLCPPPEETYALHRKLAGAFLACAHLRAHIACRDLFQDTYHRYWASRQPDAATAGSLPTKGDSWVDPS
# Chain of TSSK1B (human) (Q9BXA7 whole entry, looked up): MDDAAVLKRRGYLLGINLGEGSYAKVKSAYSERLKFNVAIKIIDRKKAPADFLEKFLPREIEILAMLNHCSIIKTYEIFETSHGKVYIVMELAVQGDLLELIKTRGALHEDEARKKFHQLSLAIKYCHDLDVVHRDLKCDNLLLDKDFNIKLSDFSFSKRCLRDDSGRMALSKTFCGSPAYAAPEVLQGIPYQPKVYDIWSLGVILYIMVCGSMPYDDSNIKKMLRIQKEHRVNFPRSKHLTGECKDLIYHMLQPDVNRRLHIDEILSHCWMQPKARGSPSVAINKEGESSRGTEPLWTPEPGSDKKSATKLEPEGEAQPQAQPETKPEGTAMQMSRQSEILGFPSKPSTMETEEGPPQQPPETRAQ
# Chain of PAK3 (human) (O75914 whole entry, looked up): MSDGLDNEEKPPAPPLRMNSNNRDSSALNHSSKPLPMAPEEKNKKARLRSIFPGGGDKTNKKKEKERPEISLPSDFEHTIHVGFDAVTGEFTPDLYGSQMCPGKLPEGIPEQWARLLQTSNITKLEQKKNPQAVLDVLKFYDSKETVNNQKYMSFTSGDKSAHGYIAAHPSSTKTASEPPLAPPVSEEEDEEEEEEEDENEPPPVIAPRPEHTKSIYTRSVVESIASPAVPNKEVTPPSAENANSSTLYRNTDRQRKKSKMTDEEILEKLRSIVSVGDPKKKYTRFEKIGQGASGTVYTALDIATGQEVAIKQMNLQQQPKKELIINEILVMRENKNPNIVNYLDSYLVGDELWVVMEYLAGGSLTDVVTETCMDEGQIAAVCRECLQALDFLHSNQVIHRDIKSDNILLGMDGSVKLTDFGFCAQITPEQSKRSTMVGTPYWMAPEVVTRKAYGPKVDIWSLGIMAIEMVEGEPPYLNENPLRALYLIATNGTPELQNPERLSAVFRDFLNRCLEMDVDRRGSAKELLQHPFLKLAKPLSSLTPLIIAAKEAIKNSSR
# Chain of CSNK1A1L (human) (Q8N752 whole entry, looked up): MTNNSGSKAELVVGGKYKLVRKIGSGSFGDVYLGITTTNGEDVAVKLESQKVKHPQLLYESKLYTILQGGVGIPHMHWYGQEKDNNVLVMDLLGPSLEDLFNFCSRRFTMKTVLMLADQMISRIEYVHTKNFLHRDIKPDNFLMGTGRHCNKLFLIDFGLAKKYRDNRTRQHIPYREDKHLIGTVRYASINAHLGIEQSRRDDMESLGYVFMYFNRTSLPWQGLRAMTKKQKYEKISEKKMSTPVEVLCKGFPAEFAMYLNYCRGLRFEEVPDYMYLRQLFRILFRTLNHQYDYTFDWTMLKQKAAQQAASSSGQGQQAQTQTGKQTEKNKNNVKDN
# Chain of PTK6 (human) (Q13882 whole entry, looked up): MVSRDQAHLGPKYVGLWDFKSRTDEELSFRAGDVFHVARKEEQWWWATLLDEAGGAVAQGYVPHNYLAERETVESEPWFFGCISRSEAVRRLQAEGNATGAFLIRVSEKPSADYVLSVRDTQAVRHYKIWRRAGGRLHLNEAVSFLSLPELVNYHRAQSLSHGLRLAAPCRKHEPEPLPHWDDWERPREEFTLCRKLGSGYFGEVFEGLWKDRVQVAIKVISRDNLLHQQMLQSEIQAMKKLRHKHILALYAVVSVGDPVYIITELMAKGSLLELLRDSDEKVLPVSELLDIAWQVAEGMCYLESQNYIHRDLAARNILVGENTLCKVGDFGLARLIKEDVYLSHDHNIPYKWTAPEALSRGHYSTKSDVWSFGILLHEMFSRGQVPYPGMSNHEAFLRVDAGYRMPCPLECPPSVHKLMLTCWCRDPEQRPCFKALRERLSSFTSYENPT
structure (smiles),measurement,setting,value
COc1ccc(-c2ccc3c(N4CCOCC4)nc(N4C[C@@H](C)O[C@@H](C)C4)nc3n2)cc1CO,"kinase still bound, per cent of control",[1],91%
same,"kinase still bound, per cent of control",[2],87%
same,"kinase still bound, per cent of control",[3],73%
same,"kinase still bound, per cent of control",[4],79%
same,per cent of control,[5],80%
same,per cent of control,[6],95%
same,"kinase still bound, per cent of control",[7],90%
same,"kinase still bound, per cent of control",[8],90%
same,"kinase still bound, per cent of control",[9],97%
same,"kinase still bound, per cent of control",[10],92%
same,"kinase still bound, per cent of control",[11],100%
same,"kinase still bound, per cent of control",[12],100%
same,"kinase still bound, per cent of control",[13],98%
same,"kinase still bound, per cent of control",[14],100%
same,"kinase still bound, per cent of control",[15],99%
same,"kinase still bound, per cent of control",[16],100%
same,"kinase still bound, per cent of control",[17],100%
same,"kinase still bound, per cent of control",[18],100%
same,"kinase still bound, per cent of control",[19],76%
same,"kinase still bound, per cent of control",[20],84%
same,"kinase still bound, per cent of control",[21],100%
same,"kinase still bound, per cent of control",[22],100%
same,"kinase still bound, per cent of control",[23],100%
same,"kinase still bound, per cent of control",[24],100%
same,"kinase still bound, per cent of control",[25],99%
same,"kinase still bound, per cent of control",[26],97%
same,"kinase still bound, per cent of control",[27],100%
same,"kinase still bound, per cent of control",[28],100%
same,"kinase still bound, per cent of control",[29],90%
same,"kinase still bound, per cent of control",[30],76%
same,"kinase still bound, per cent of control",[31],2.8%
same,"kinase still bound, per cent of control",[32],97%
same,"kinase still bound, per cent of control",[33],95%
same,"kinase still bound, per cent of control",[34],84%
same,"kinase still bound, per cent of control",[35],100%
same,"kinase still bound, per cent of control",[36],93%
same,"kinase still bound, per cent of control",[37],92%
same,"kinase still bound, per cent of control",[38],71%
same,"kinase still bound, per cent of control",[39],100%
same,"kinase still bound, per cent of control",[40],91%
same,"kinase still bound, per cent of control",[41],100%
